Reference: US9932637B2, “Genetic polymorphisms associated with cardiovascular disorders and drug response, methods of detection and uses thereof” (CELERA CORPORATION, priority 2003, dated 2018)
Values joined by “and” are separate entries in the source; they are usually repeats but may differ in a detail not shown here. Identical values can stand only once.

System: patients with prior myocardial infarction (CARE study)
Experiment: CARE aligned analysis (prospective and case/control design, white males): association of genotypes with pravastatin efficacy (Tables 13, 15)
Type: in vivo, human
Conditions: for Pravastatin vs placebo odds ratio, 0 rare alleles / Pravastatin vs placebo odds ratio, 1 rare allele / Pravastatin vs placebo odds ratio, 2 rare alleles / 2 rare alleles n/total (%), pravastatin patients: CARE, F MI/SD/NF MI; for Pravastatin Patients (%) / Pravastatin Patients n/total: WM
Description: The data presented in Table 8 based on an association of genotypes with pravastatin efficacy of the CARE samples were further analyzed and presented in Table 13. The further analysis was performed to align the data obtained from the analysis of the CARE samples, which was a prospective study, to the analysis of the WOSCOP samples, which was a case/control study. Table 13 also presents an analysis of the association of genotypes with pravastatin efficacy in the WOSCOPs samples. Relative to the analysis performed on the data presented in Table 8, there are two significant differences to determine if the SNP influenced pravastatin efficacy. Data obtained from the CARE samples were separated by study design into two groups, those in the prospective study design group and those in the case/control study design group. The original care study contained 16 protocol defined cardiovascular disease defined endpoints and 150 other phenotypes. […] The control groups used to compare the data were also divided into two groups, the “all possible” control group and the “cleaner” control group. […] Because the participants in the WOSCOPs trial were all white males, only data obtained from white males in the CARE study were analysed. Data from the “all possible” and “cleaner” controls were compared to data obtained from the cases in the prospective study design while only data from “cleaner” controls were compared to cases in the case/control study design. The data from the case/control cohorts were analysed using conditional logistic regression (as opposed to logistic regression used for the original anaylsis).
The anaylsis was refined as described for both Tables 13 and 14.

[1] = KLK14 hCV16044337, 0 Rare Alleles, CARE Case/Control, F&NF MI, All Possible controls
[2] = KLK14 hCV16044337, 0 Rare Alleles, CARE Case/Control, F&NF MI, Cleaner controls
[3] = KLK14 hCV16044337, 0 Rare Alleles, CARE Prospective, F&NF MI, All Possible controls
[4] = KLK14 hCV16044337, 0 Rare Alleles, CARE Prospective, F&NF MI, Cleaner controls
[5] = KLK14 hCV16044337, 1 Rare Allele, CARE Case/Control, F&NF MI, All Possible controls
[6] = KLK14 hCV16044337, 1 Rare Allele, CARE Case/Control, F&NF MI, Cleaner controls
[7] = KLK14 hCV16044337, 1 Rare Allele, CARE Prospective, F&NF MI, All Possible controls
[8] = KLK14 hCV16044337, 1 Rare Allele, CARE Prospective, F&NF MI, Cleaner controls
[9] = KLK14 hCV16044337, Case/Control
[10] = LPA hCV11225994, 0 Rare Alleles, CARE Case/Control, F&NF MI, Cleaner controls
[11] = LPA hCV11225994, 1 Rare Allele, CARE Case/Control, F&NF MI, Cleaner controls
[12] = MYH7 hCV25629396, 0 Rare Alleles, CARE Case/Control, F&NF MI, Cleaner controls
[13] = MYH7 hCV25629396, 0 Rare Alleles, CARE Prospective, F&NF MI, Cleaner controls
[14] = MYH7 hCV25629396, 1 Rare Allele, CARE Case/Control, F&NF MI, All Possible controls
[15] = MYH7 hCV25629396, 1 Rare Allele, CARE Case/Control, F&NF MI, Cleaner controls
[16] = MYH7 hCV25629396, 1 Rare Allele, CARE Prospective, F&NF MI, All Possible controls
[17] = MYH7 hCV25629396, 1 Rare Allele, CARE Prospective, F&NF MI, Cleaner controls
[18] = NOS3 hCV3219460, 0 Rare Alleles, CARE Case/Control, F&NF MI, All Possible controls
[19] = NOS3 hCV3219460, 0 Rare Alleles, CARE Case/Control, F&NF MI, Cleaner controls
[20] = NOS3 hCV3219460, 0 Rare Alleles, CARE Prospective, F&NF MI, All Possible controls
[21] = NOS3 hCV3219460, 0 Rare Alleles, CARE Prospective, F&NF MI, Cleaner controls
[22] = NOS3 hCV3219460, 1 Rare Allele, CARE Case/Control, F&NF MI, All Possible controls
[23] = NOS3 hCV3219460, 1 Rare Allele, CARE Case/Control, F&NF MI, Cleaner controls
[24] = NOS3 hCV3219460, 1 Rare Allele, CARE Prospective, F&NF MI, All Possible controls

In the case of `CC[C@H](C)C(=O)O[C@H]1C[C@H](O)C=C2C=C[C@H](C)[C@H](CC[C@@H](O)C[C@@H](O)CC(=O)O)[C@H]21` [pravastatin], the “Pravastatin vs placebo odds ratio, 0 rare alleles” value (KDR hCV22271999, Case/Control) is reported as 0.67 and 0.59, the “Pravastatin vs placebo odds ratio, 1 rare allele” value (KDR hCV22271999, Case/Control) is reported as 1.69 and the “Pravastatin vs placebo odds ratio, 2 rare alleles” value (KDR hCV22271999, Case/Control) is reported as 0.38 and 0.31. The “2 rare alleles n/total (%), pravastatin patients” value (KDR hCV22271999, Prospective) was “(9.1%)”, the “Pravastatin vs placebo odds ratio, 0 rare alleles” value (KDR hCV22271999, Prospective) was 0.61 and the “Pravastatin vs placebo odds ratio, 1 rare allele” value (KDR hCV22271999, Prospective) was 1.41. For the same compound, the “Pravastatin vs placebo odds ratio, 2 rare alleles” value (KDR hCV22271999, Prospective) was 0.27, the “Pravastatin Patients (%)” value [1] was “(10.9%)” and the “Pravastatin Patients n/total” value [1] was 60/548. For the same compound, the “Pravastatin Patients (%)” value [2] was “(16.4%)”, the “Pravastatin Patients n/total” value [2] was 60/365 and the “Pravastatin Patients (%)” value [3] was “(10.7%)”. For the same compound, the “Pravastatin Patients n/total” value [3] was 60/560, the “Pravastatin Patients (%)” value [4] was “(16.0%)” and the “Pravastatin Patients n/total” value [4] was 60/374. The “Pravastatin Patients (%)” value [5] was “(10.4%)”, the “Pravastatin Patients n/total” value [5] was 57/547 and the “Pravastatin Patients (%)” value [6] was “(14.3%)”. The “Pravastatin Patients n/total” value [6] was 57/399, the “Pravastatin Patients (%)” value [7] was “(10.3%)” and the “Pravastatin Patients n/total” value [7] was 57/556. The “Pravastatin Patients (%)” value [8] was “(14.1%)”, the “Pravastatin Patients n/total” value [8] was 57/404 and the “Pravastatin vs placebo odds ratio, 0 rare alleles” value [9] was 1.02 and 0.98. The “Pravastatin vs placebo odds ratio, 1 rare allele” value [9] was 0.85 and 0.74, the “Pravastatin vs placebo odds ratio, 2 rare alleles” value [9] was 0.23 and the “Pravastatin vs placebo odds ratio, 0 rare alleles” value (KLK14 hCV16044337, Prospective) was 1.04 and 0.97. The “Pravastatin vs placebo odds ratio, 1 rare allele” value (KLK14 hCV16044337, Prospective) was 0.86 and 0.73, the “Pravastatin vs placebo odds ratio, 2 rare alleles” value (KLK14 hCV16044337, Prospective) was 0.22 and 0.23 and the “Pravastatin Patients (%)” value [10] was “(14.0%)”. The “Pravastatin Patients n/total” value [10] was 88/627, the “Pravastatin Patients (%)” value [11] was “(15.4%)” and the “Pravastatin Patients n/total” value [11] was 29/188. For the same compound, the “2 Rare Alleles (%), Pravastatin Patients” value (LPA hCV11225994, CARE Case/Control, F&NF MI) was “(41.2%)”, the “2 rare alleles n/total (%), pravastatin patients” value (MICA hCV25474101, Case/Control) was “(37.5%)” and the “Pravastatin vs placebo odds ratio, 0 rare alleles” value (MICA hCV25474101, Case/Control) was 0.67. The “Pravastatin vs placebo odds ratio, 1 rare allele” value (MICA hCV25474101, Case/Control) was 0.72, the “Pravastatin vs placebo odds ratio, 2 rare alleles” value (MICA hCV25474101, Case/Control) was 6.64 and the “Pravastatin Patients (%)” value (MYH7 hCV25629396, 0 Rare Alleles, CARE Case/Control, F&NF MI, All Possible controls) was “(10.0%)”. For the same compound, the “Pravastatin Patients (%)” value [12] was “(14.5%)”, the “Pravastatin Patients n/total” value [12] was 118/815 and the “Pravastatin Patients (%)” value (MYH7 hCV25629396, 0 Rare Alleles, CARE Prospective, F&NF MI, All Possible controls) was “(9.8%)”. The “Pravastatin Patients (%)” value [13] was “(14.2%)”, the “Pravastatin Patients n/total” value [13] was 118/829 and the “Pravastatin Patients (%)” value [14] was “(29.0%)”. For the same compound, the “Pravastatin Patients n/total” value [14] was 9/31, the “Pravastatin Patients (%)” value [15] was “(40.9%)” and the “Pravastatin Patients n/total” value [15] was 9/22. For the same compound, the “Pravastatin Patients (%)” value [16] was “(29.0%)”, the “Pravastatin Patients n/total” value [16] was 9/31 and the “Pravastatin Patients (%)” value [17] was “(40.9%)”. For the same compound, the “Pravastatin Patients n/total” value [17] was 9/22, the “Pravastatin vs placebo odds ratio, 0 rare alleles” value (MYH7 hCV25629396, Case/Control) was 0.75 and 0.67 and the “Pravastatin vs placebo odds ratio, 1 rare allele” value (MYH7 hCV25629396, Case/Control) was 12.05 and 11.70. The “Pravastatin vs placebo odds ratio, 0 rare alleles” value (MYH7 hCV25629396, Prospective) was 0.75 and 0.66, the “Pravastatin vs placebo odds ratio, 1 rare allele” value (MYH7 hCV25629396, Prospective) was 13.41 and 14.00 and the “Pravastatin Patients (%)” value [18] was “(10.0%)”. For the same compound, the “Pravastatin Patients n/total” value [18] was 53/529, the “Pravastatin Patients (%)” value [19] was “(14.8%)” and the “Pravastatin Patients n/total” value [19] was 53/359. For the same compound, the “Pravastatin Patients (%)” value [20] was “(9.8%)”, the “Pravastatin Patients n/total” value [20] was 53/539 and the “Pravastatin Patients (%)” value [21] was “(14.4%)”. The “Pravastatin Patients n/total” value [21] was 53/368, the “Pravastatin Patients (%)” value [22] was “(12.3%)” and the “Pravastatin Patients n/total” value [22] was 64/520. The “Pravastatin Patients (%)” value [23] was “(17.6%)”, the “Pravastatin Patients n/total” value [23] was 64/363 and the “Pravastatin Patients (%)” value [24] was “(12.1%)”. The “Pravastatin Patients n/total” value [24] was 64/527 and the “Pravastatin Patients (%)” value (NOS3 hCV3219460, 1 Rare Allele, CARE Prospective, F&NF MI, Cleaner controls) was “(17.5%)”.
